Experimental data from patent publication US9314026B2, “Heterocyclylpyri(mi)dinylpyrazole” (Bayer Intellectual Property GmbH, priority 2011, dated 2016).
Read-outs that look alike come from different tables or passages of the source.

Tests used:
[1] = tested on: Sphaerotheca fuliginea; assay: Sphaerotheca test (cucumber)/preventive; format: in vivo; details: Podosphaera fuliginea, 168 h, 500 ppm of active ingredient, preventive, evaluated 7 days after inoculation, 0% = untreated control, 100% = no disease, read-out: efficacy
Description: (§1) Sphaerotheca Test (Cucumber)/Preventive Solvent: 49 parts by weight of N,N-Dimethylformamide Emulsifier: 1 part by weight of Alkylarylpolyglycolether To produce a suitable preparation of active compound, 1 part by weight of active compound is mixed with the stated amounts of solvent and emulsifier, and the concentrate is diluted with water to the desired concentration. To test for preventive activity, young plants are sprayed with the preparation of active compound at the stated rate of application. One day after this treatment, the plants are inoculated with an aqueous spore suspension of Sphaerotheca fuliginea.

[2] = tested on: Pyricularia oryzae; assay: whole plant or invertebrate; format: in vivo; details: 168 h, read-out: efficacy
[3] = tested on: Pyrenophora teres; assay: Pyrenophora test (barley)/preventive; format: in vivo; details: 500 ppm of active ingredient, preventive, evaluated 7-9 days after inoculation, read-out: efficacy
Description: as §1, with “Pyrenophora” for “Sphaerotheca”, “(Barley)/Preventive” for “(Cucumber)/Preventive”, “Pyrenophora teres.” for “Sphaerotheca fuliginea.”

[4] = determination of the log P values by HPLC on a reverse phase column (C18), EEC-Directive 79/831 Annex V.A8; format: physicochemical
Description: Method A Note on the determination of the log P values and mass detection: The stated log P values were determined in accordance with EEC-Directive 79/831 Annex V.A8 by HPLC (High Performance Liquid Chromatography) on a reverse phase column (C18). […] The mass detection was effected with an […] system. Method B Note on the determination of the log P values and mass detection: The stated log P values were determined in accordance with EEC-Directive 79/831 Annex V.A8 by HPLC (High Performance Liquid Chromatography) on a reverse phase column (C18). […] The mass detection was effected with the Micronass ZQ2000 mass detector from Waters. Method C Note on the determination of the log P values and mass detection: The stated log P values were determined in accordance with EEC-Directive 79/831 Annex V.A8 by UPLC (Ultra Performance Liquid Chromatography) on a reverse phase column (C18). […] The mass detection was effected with the LCT Premier or SQD mass detector from Waters.

[5] = tested on: Leptosphaeria nodorum; assay: Leptosphaeria test (wheat)/preventive; format: in vivo; details: Parastagonospora nodorum, 500 ppm of active ingredient, preventive, evaluated 7-9 days after inoculation, read-out: efficacy
Description: (§2) Leptosphaeria Test (Wheat)/Preventive Solvent: 49 parts by weight of N,N-Dimethylformamide Emulsifier: 1 part by weight of Alkylarylpolyglycolether To produce a suitable preparation of active compound, 1 part by weight of active compound is mixed with the stated amounts of solvent and emulsifier, and the concentrate is diluted with water to the desired concentration. To test for preventive activity, young plants are sprayed with a preparation of active compound at the stated rate of application. One day after this treatment, the plants are inoculated with an aqueous spore suspension of Leptosphaeria nodorum.

[6] = tested on: Puccinia recondita; assay: Puccinia test (wheat)/preventive; format: in vivo; details: 500 ppm of active ingredient, preventive, evaluated 7-9 days after inoculation, read-out: efficacy
Description: as §2, with “Puccinia Test (Wheat)/Preventive” for “Leptosphaeria Test (Wheat)/Preventive”, “sprayed with the preparation of” for “sprayed with a preparation of”, “suspension of Puccinia recondita.” for “suspension of Leptosphaeria nodorum.”

[7] = tested on: Alternaria solani; assay: Alternaria test (tomato)/preventive; format: in vivo; details: 168 h, 500 ppm of active ingredient, preventive, evaluated 7 days after inoculation, read-out: efficacy
Description: as §1, with “Alternaria” for “Sphaerotheca”, “(Tomato)/Preventive” for “(Cucumber)/Preventive”, “Alternaria solani. […] Then the plants are placed in an incubation cabinet at approximately 20° C. and a relative atmospheric humidity of 96%.” for “Sphaerotheca fuliginea.”

O=C(C1CC1)N(C(=O)C1CC1)c1cc(-c2c(-c3ccc(F)cc3)nn3c2CCC3)ccn1 [Example 12, N-(cyclopropylcarbonyl)-N-{4-[2-(4-fluorophenyl)-5,6-dihydro-4H-pyrrolo[1,2-b]pyrazol-3-yl]pyridin-2-yl}cyclopropanecarboxamide]
pest or weed control at 500 ppm [1]: 100%
pest or weed control at 500 ppm [2]: 80%
pest or weed control at 500 ppm [3]: 95%
chromatographic logP [4]: 2.91
pest or weed control at 500 ppm [5]: 95%
pest or weed control at 500 ppm [6]: 95%
pest or weed control at 500 ppm [7]: 80%

CC(C)CC(=O)N(C(=O)CC(C)C)c1cc(-c2c(-c3ccc(F)cc3)nn3c2CCOC3C)ccn1 (centres unmarked) [Example 13, N-{4-[2-(4-fluorophenyl)-7-methyl-4,5-dihydropyrazolo[1,5-c][1,3]oxazin-3-yl]pyridin-2-yl}-3-methyl-N-(3-methylbutanoyl)butanamide]
pest or weed control at 500 ppm [1]: 93%
pest or weed control at 500 ppm [3]: 89%
chromatographic logP [4]: 5.01
pest or weed control at 500 ppm [5]: 89%
pest or weed control at 500 ppm [7]: 78%

O=C(Nc1cc(-c2c(-c3ccc(F)cc3)nn3c2CCC3)ccn1)C1CCC1 [[XI-14], N-{4-[2-(4-fluorophenyl)-5,6-dihydro-4H-pyrrolo[1,2-b]pyrazol-3-yl]pyridin-2-yl}cyclobutanecarboxamide]
chromatographic logP ([4]; pH 2.3): 2.08

CC(C)CC(=O)Nc1cc(-c2c(-c3ccc(F)cc3)nn3c2CCC3)ccn1 [[XI-15], N-{4-[2-(4-fluorophenyl)-5,6-dihydro-4H-pyrrolo[1,2-b]pyrazol-3-yl]pyridin-2-yl}-3-methylbutanamide]
chromatographic logP ([4]; pH 2.3): 2.2

CCC(=O)Nc1cc(-c2c(-c3ccc(F)cc3)nn3c2CCC3CC)ccn1 (centres unmarked) [[XI-16], N-{4-[6-ethyl-2-(4-fluorophenyl)-5,6-dihydro-4H-pyrrolo[1,2-b]pyrazol-3-yl]pyridin-2-yl}propanamide]
chromatographic logP ([4]; pH 2.3): 2.3

CCC(C)C(=O)Nc1cc(-c2c(-c3ccc(F)cc3)nn3c2CCC3)ccn1 (centres unmarked) [[XI-17], N-{4-[2-(4-fluorophenyl)-5,6-dihydro-4H-pyrrolo[1,2-b]pyrazol-3-yl]pyridin-2-yl}-2-methylbutanamide]
chromatographic logP ([4]; pH 2.3): 2.23

COCC(=O)Nc1cc(-c2c(-c3ccc(F)cc3)nn3c2CC(C)C3)ccn1 (centres unmarked) [[XI-18], N-{4-[2-(4-fluorophenyl)-5-methyl-5,6-dihydro-4H-pyrrolo[1,2-b]pyrazol-3-yl]pyridin-2-yl}-2-methoxyacetamide]
chromatographic logP ([4]; pH 2.3): 2.3

CCC(=O)Nc1cc(-c2c(-c3ccc(F)cc3)nn3c2C(OC)CC3)ccn1 (centres unmarked) [[XI-19], N-{4-[2-(4-fluorophenyl)-4-methoxy-5,6-dihydro-4H-pyrrolo[1,2-b]pyrazol-3-yl]pyridin-2-yl}propanamide]
chromatographic logP ([4]; pH 2.3): 1.72

O=C(Nc1cc(-c2c(-c3csc(Cl)c3)nn3c2CCC3)ccn1)C1CC1 [[XI-20], N-{4-[2-(5-chloro-3-thienyl)-5,6-dihydro-4H-pyrrolo[1,2-b]pyrazol-3-yl]pyridin-2-yl}cyclopropanecarboxamide]
chromatographic logP ([4]; pH 2.3): 2.02

CC(C)C(=O)Nc1cc(-c2c(-c3csc(Cl)c3)nn3c2CCC3)ccn1 [[XI-21], N-{4-[2-(5-chloro-3-thienyl)-5,6-dihydro-4H-pyrrolo[1,2-b]pyrazol-3-yl]pyridin-2-yl}-2-methylpropanamide]
chromatographic logP ([4]; pH 2.3): 2.24

CC1Cc2c(-c3ccnc(NC(=O)CC4CC4)c3)c(-c3ccc(F)cc3)nn2C1 (centres unmarked) [[XI-22], 2-cyclopropyl-N-{4-[2-(4-fluorophenyl)-5-methyl-5,6-dihydro-4H-pyrrolo[1,2-b]pyrazol-3-yl]pyridin-2-yl}acetamide]
chromatographic logP ([4]; pH 2.3): 2.36

CC1OCCc2c(-c3ccnc(NC(=O)C4CC4)c3)c(-c3ccc(F)cc3)nn21 (centres unmarked) [[XI-23], N-{4-[2-(4-fluorophenyl)-7-methyl-4,5-dihydropyrazolo[1,5-c][1,3]oxazin-3-yl]pyridin-2-yl}cyclopropanecarboxamide]
chromatographic logP ([4]; pH 2.3): 2.33

O=C(Nc1cc(-c2c(-c3ccc(F)cc3)nn3c2CCC3)ccn1)C1CCOC1 (centres unmarked) [[XI-24], N-{4-[2-(4-fluorophenyl)-5,6-dihydro-4H-pyrrolo[1,2-b]pyrazol-3-yl]pyridin-2-yl}tetrahydrofuran-3-carboxamide]
chromatographic logP ([4]; pH 2.3): 1.69

O=C(CC1CC1)Nc1cc(-c2c(-c3csc(Cl)c3)nn3c2CCC3)ccn1 [[XI-25], N-{4-[2-(5-chloro-3-thienyl)-5,6-dihydro-4H-pyrrolo[1,2-b]pyrazol-3-yl]pyridin-2-yl}-2-cyclopropylacetamide]
chromatographic logP ([4]; pH 2.3): 2.4

CCC1CCc2c(-c3ccnc(NC(=O)CC4CC4)c3)c(-c3ccc(F)cc3)nn21 (centres unmarked) [[XI-26], 2-cyclopropyl-N-{4-[6-ethyl-2-(4-fluorophenyl)-5,6-dihydro-4H-pyrrolo[1,2-b]pyrazol-3-yl]pyridin-2-yl}acetamide]
chromatographic logP ([4]; pH 2.3): 2.81

O=C(Nc1cc(-c2c(-c3ccc(F)cc3)nn3c2CCC3)ccn1)C1CCOCC1 [[XI-27], N-{4-[2-(4-fluorophenyl)-5,6-dihydro-4H-pyrrolo[1,2-b]pyrazol-3-yl]pyridin-2-yl}tetrahydro-2H-pyran-4-carboxamide]
chromatographic logP ([4]; pH 2.3): 1.77

O=C(CCc1ccccc1)Nc1cc(-c2c(-c3ccc(F)cc3)nn3c2CCC3)ccn1 [[XI-28], N-{4-[2-(4-fluorophenyl)-5,6-dihydro-4H-pyrrolo[1,2-b]pyrazol-3-yl]pyridin-2-yl}-3-phenylpropanamide]
chromatographic logP ([4]; pH 2.3): 2.62

O=C(CCCCO)CC(=O)c1ccc(F)cc1 [[XIII-4], 1-(4-fluorophenyl)-7-hydroxyheptane-1,3-dione]
chromatographic logP ([4]; pH 2.7): 2.3

OCCCc1cc(-c2ccc(F)cc2)n[nH]1 [[XIV-1], 3-[3-(4-fluorophenyl)-1H-pyrazol-5-yl]propan-1-ol]
chromatographic logP ([4]; pH 2.3): 1.5
chromatographic logP ([4]; pH 2.7): 1.51

OCCCc1cc(-c2ccc(F)c(F)c2)n[nH]1 [[XIV-2], 3-[3-(3,4-difluorophenyl)-1H-pyrazol-5-yl]propan-1-ol]
chromatographic logP ([4]; pH 2.3): 1.73
chromatographic logP ([4]; pH 2.7): 1.73

OCCCc1cc(-c2ccc(F)c(Cl)c2)n[nH]1 [[XIV-3], 3-[3-(3-chloro-4-fluorophenyl)-1H-pyrazol-5-yl]propan-1-ol]
chromatographic logP ([4]; pH 2.3): 1.97
chromatographic logP ([4]; pH 2.7): 1.96

OCCCCc1cc(-c2ccc(F)cc2)n[nH]1 [[XIV-4], 4-[3-(4-fluorophenyl)-1H-pyrazol-5-yl]butan-1-ol]
chromatographic logP ([4]; pH 2.3): 1.72
chromatographic logP ([4]; pH 2.7): 1.72

CC(CCO)c1cc(-c2ccc(F)cc2)n[nH]1 (centres unmarked) [[XIV-5], 3-[3-(4-fluorophenyl)-1H-pyrazol-5-yl]butan-1-ol]
chromatographic logP ([4]; pH 2.3): 1.74
chromatographic logP ([4]; pH 2.7): 1.74
